Assay [1] has as its system small cell lung cancer cell line H-526 expressing c-Kit kinase. Kind of assay: Effect on proliferation of H-526 cells stimulated by SCF (Cell Counting Kit-8). Type of assay: cell-based. The following applies: Homo sapiens, NCI-H526, 7th day after addition of test substance, read-out: IC50, concentration required for 50% inhibition of the cell proliferation stimulated by SCF. As for the experimental part: H-526 cells were cultured in a 5% CO2 incubator (37° C.) using an RPMI1640 medium (Nissui Pharmaceutical Co., Ltd.) containing 10% FCS (purchased from Cell Culture Technologies). After culturing, H-526 cells were washed with PBS three times and were suspended in an RPMI1640 medium containing 0.1% BSA (Sigma Corporation) (hereinafter abbreviated as “BSA-RPMI1640”) at 1.0×10^5 cells/ml. […] On the 7th day after addition of the test substance, 20 μl of Cell Counting Kit-8 (Dojin Laboratories) was added to the well and was cultured in a 5% CO2 incubator (37° C.) for about 2 hours. After color development, the absorbance of each well was determined using a MTP-32 plate reader (Colona Electric Co., Ltd.) at a measuring wavelength of 450 nm and at a reference wavelength of 660 nm. The absorbance of each well was subtracted by the absorbance of the well without addition of SCF, and then the ratio of the absorbance of the well with addition of the test substance to the ratio of the absorbance of the well without addition of the test substance was determined. This ratio was used to calculate the concentration of the test substance required for 50% inhibition of the cell proliferation (IC50).
On the technique in general: Tetrazolium dyes change colour on reduction, which living cells bring about.

In assay [2] the target is T1, c-Kit kinase (Homo sapiens, UniProt P10721). The experiment in a line: c-Kit kinase phosphorylation by SCF stimulation in H-526 cells (immunoblot, phospho-c-kit Tyr719). The class given is cell-based. Also noted: in the small cell lung cancer cell line H-526 expressing c-Kit kinase; host or cells: H-526 small cell lung cancer cells. The following applies: 1 hour test substance then 5 minutes SCF, FIG. 1. As for the experimental part: H-526 cells were cultured in a 5% CO2 incubator (37° C.) using an RPMI1640 medium containing 10% FCS. After culturing, H-526 cells were washed with PBS three times and were suspended in a BSA-RPMI1640 medium at 5.0×10^5 cells/ml. Each 1 ml of this cell suspension was inoculated to the well of a 24-well plate and the suspension was cultured in a 5% CO2 incubator (37° C.) for 6 hours. After 6-hours culturing, 1 ml of BSA-RPMI1640 containing a diluted test substance was added to each well and culturing was carried out in a 5% CO2 incubator (37° C.) for 1 hour. […] After 5-minutes culturing, the cells were washed with PBS and 100 μl of SDS sample loading buffer was added to the cells to prepare a cell lysate sample. After the sample was heat-treated at 94° C. for 10 minutes, it was cryopreserved at -20° C. […] After electrophoresis, the sample was transferred to a PVDF membrane (Amersham Pharmacia Biotech Inc.) for 3 hours. The transferred membrane was subjected to immunoblot using a phospho-c-kit ([…]) antibody (Cell Signaling Technology Inc.) as a primary antibody and an anti-rabbit IgG, HRP-linked antibody (Cell Signaling Technology Inc.) as a secondary antibody. After the membrane was washed, it was developed with a Super Signal (Pierce Biotechnology, Inc.).
T1 sequence (P10721 26-976): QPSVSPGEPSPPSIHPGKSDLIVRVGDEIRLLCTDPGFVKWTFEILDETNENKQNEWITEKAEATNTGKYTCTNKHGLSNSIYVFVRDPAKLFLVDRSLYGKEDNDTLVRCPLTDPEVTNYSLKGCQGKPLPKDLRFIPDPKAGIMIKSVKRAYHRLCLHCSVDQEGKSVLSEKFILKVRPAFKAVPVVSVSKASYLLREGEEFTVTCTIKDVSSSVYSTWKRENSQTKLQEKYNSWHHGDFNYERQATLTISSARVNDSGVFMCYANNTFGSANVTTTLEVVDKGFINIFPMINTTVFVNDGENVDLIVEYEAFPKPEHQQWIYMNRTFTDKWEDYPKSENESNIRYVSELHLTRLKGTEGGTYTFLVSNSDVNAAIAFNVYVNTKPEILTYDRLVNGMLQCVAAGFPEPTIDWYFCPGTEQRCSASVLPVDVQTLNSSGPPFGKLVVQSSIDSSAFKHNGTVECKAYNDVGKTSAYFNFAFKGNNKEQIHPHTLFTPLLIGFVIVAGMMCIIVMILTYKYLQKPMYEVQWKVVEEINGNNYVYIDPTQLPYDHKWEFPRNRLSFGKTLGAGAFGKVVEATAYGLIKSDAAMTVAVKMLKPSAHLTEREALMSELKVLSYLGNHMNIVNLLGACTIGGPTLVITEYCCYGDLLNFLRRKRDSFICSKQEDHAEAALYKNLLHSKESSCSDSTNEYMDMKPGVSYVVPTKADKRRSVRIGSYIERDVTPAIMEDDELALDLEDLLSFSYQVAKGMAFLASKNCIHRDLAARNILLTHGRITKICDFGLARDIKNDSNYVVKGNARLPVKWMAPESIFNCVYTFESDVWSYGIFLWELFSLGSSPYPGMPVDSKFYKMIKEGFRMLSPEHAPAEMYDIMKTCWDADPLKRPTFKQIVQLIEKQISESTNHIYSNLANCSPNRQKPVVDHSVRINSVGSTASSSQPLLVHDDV

Assay [3] deals with H-526 tumor. The experiment in a line: Growth of H-526 tumor transplanted to nude mice. The following applies: oral, twice daily for 14 days, FIG. 2. Type of assay: in vivo, Balb/c nu/nu mice. As for the experimental part:
H-526 cells were cultured in a 5% CO2 incubator (37° C.) using an RPMI1640 medium containing 10% FCS. After the culture medium was collected, H-526 cells were washed with PBS twice and were suspended in PBS at 5.0×10^7 cells/ml. This cell suspension (0.1 ml) was transplanted to the subcutaneous parts of the right flank of 6-week female Balb/c nu/nu mice (purchased from Charles River Laboratories, Inc.). After transplantation, administration of a test substance was started at the point the tumor volume reached approximately 150 mm^3, and thus, oral administration was conducted twice daily for a period of 14 days. The test substance was suspended in a 0.5% methylcellulose solution (Wako Pure Chemical Industries Co., Ltd.) so as to give a dose of 0.1 ml/10 g body weight.
The tumor volume was measured with a caliper twice weekly during the administration period. The long and short diameters of the tumor were measured with a caliper and the tumor volume was calculated according to the equation: ½×long diameter×short diameter×short diameter. Here, the experiment was conducted in a vehicle control group of 10 animals (solvent-administered group) as well as in a test substance administered group of 5 animals.

The target of assay [4] is T1, c-Kit kinase. The experiment in a line: c-Kit kinase phosphorylation in H-526 tumor transplanted to nude mice (immunoblot). As to conditions: H-526 tumor in nude mice, FIG. 3. The class given is in vivo, Balb/c nu/nu mice. On the set-up: Compound 1 reduced phosphorylated c-Kit in tumor tissue when administered at 30 or 100 mg/kg; from tissue; host or cells: H-526 tumour grown subcutaneously in female Balb/c nu/nu mice. As for the experimental part: 0.1 ml of a H-526 cell suspension prepared at a concentration of 5.0×10^7 cells/ml, was transplanted to the subcutaneous parts of the right latus of 6-week female Balb/c nu/nu mice (purchased from Charles River Laboratories, Inc.). The animals were then divided into a vehicle control group (solvent-administered group) and a test substance administered group at the point the tumor volume reached 300-1000 mm^3: the test substance was administered to the latter group. […] After centrifugation, the supernatant was protein quantified, and a 3×SDS sample loading buffer was added to prepare a cell lysate sample. Subsequently, the cell lysate was heat-treated at 94° C. for 10 minutes and cryopreserved at -20° C. […] After electrophoresis, the sample was transferred to a PVDF membrane (Amersham Pharmacia Biotech Inc.) for 3 hours. In order to assay phosphorylated c-Kit, c-Kit and β-actin, immunoblot was performed using a phospho-c-kit ([…]) antibody (Cell Signaling Technologies, Inc.), an anti c-Kit antibody (Cell Signaling Technologies, Inc.) and an anti β-actin antibody (Sigma) as a primary antibody and an anti-rabbit IgG, HRP-linked antibody (Cell Signaling Technologies, Inc.) as a secondary antibody. After the membrane was washed, it was developed with a Super Signal (Pierce Biotechnology, Inc.).
A general note: A western blot detects proteins with antibodies after separation by electrophoresis.

Consider `CCNC(=O)Nc1ccc(Oc2ccnc3cc(OC)c(C(=O)NOC)cc23)cc1Cl` [Compound 4, N6-Methoxy-4-(3-chloro-4-(((ethylamino)carbonyl)amino)phenoxy)-7-methoxy-6-quinolinecarboxamide], for which, in assay [1], the IC50 worked out at 56.3 nM.
On to `COc1cc2nccc(Oc3ccc(NC(=O)NC4CC4)c(Cl)c3)c2cc1C(N)=O` [Compound 1, 4-(3-Chloro-4-(cyclopropylaminocarbonyl)aminophenoxy)-7-methoxy-6-quinolinecarboxamide], for which the IC50 in assay [1] was 9.36 nM. In addition, the “suppression of c-Kit kinase phosphorylation in the presence of SCF” value in assay [2] is “suppressed the c-Kit kinase phosphorylation that would take place in the presence of SCF in a concentration-dependent manner”. In assay [3], the “growth of nude mouse transplanted H-526 tumor (tumor volume)” value is given as “suppressed the growth of the nude mouse transplanted H-526 tumor in a dose-dependent manner”. In addition, in assay [4] (30 or 100 mg/kg), the “c-Kit and β-actin in tumor tissue” value is “remained unchanged”; the “phosphorylated c-Kit in tumor tissue” value was “completely inhibited phosphorylation”.
In the case of `CCNC(=O)Nc1ccc(Oc2ccnc3cc(OC)c(C(N)=O)cc23)cc1Cl` [Compound 2, 4-(3-Chloro-4-(ethylaminocarbonyl)aminophenoxy)-7-methoxy-6-quinolinecarboxamide], the IC50 in assay [1] was 12.8 nM.
As to `Cc1ccc(NC(=O)c2ccc(CN3CCN(C)CC3)cc2)cc1Nc1nccc(-c2cccnc2)n1` [STI571, reference compound], the “anti-tumor effect on nude mouse transplanted H-526 tumor” value in assay [3] (160 mg/kg) is recorded as “little anti-tumor effect”. For the same compound, the “phosphorylated c-Kit in tumor tissue” value in assay [4] (160 mg/kg) was “partially inhibited phosphorylation”.
Regarding `CONC(=O)c1cc2c(Oc3ccc(NC(=O)NC4CC4)c(Cl)c3)ccnc2cc1OC` [Compound 3, N6-Methoxy-4-(3-chloro-4-(((cyclopropylamino)carbonyl)amino)phenoxy)-7-methoxy-6-quinolinecarboxamide], in assay [1], the IC50 was determined as 214 nM.

Source of the values: US7994159B2, “c-Kit kinase inhibitor” (Eisai R&D Management Co., Ltd., priority 2003, dated 2011).
